# Test results reported in paper PMC3514216, “SRC Homology 2 Domain Binding Sites in Insulin, IGF-1 and FGF receptor mediated signaling networks reveal an extensive potential interactome” (Cell Communication and Signaling : CCS, 2012).
# Key:
# [1] = target: T1, Nck1 SH2 domain (Homo sapiens, UniProt P16333); assay: SPOT peptide array; type: binding; details: GST-SH2 0.25 μM, membrane-bound peptide, 1 mM DTT, LiCor read-out
# How it was run: (§1)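 GST-tagged SH2 domain probed onto SPOT-synthesized 11-mer pTyr peptides (pTyr at pos. 5); anti-GST + NIR-labelled secondary detection. Binder = spot intensity >3× array mean; non-binder <1× mean; 1–3× indeterminate. GST-only 'sticky' peptides excluded.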
# [2] = target: T1, Nck1 SH2 domain; design: method as in PMID 16636066; details: peptide similar to the TIR10 peptide (EHIpYDEVAAD); read-out: Affinity (KD); cited from earlier work
# [3] = target: T2, Src SH2 domain (Homo sapiens, UniProt P12931); assay: SPOT peptide array; type: binding; details: GST-SH2 0.25 μM; for Array positive: membrane-bound peptide, 1 mM DTT, LiCor read-out
# How it was run: as §1
# [4] = test system: Lck SH2 domain; assay: SPOT peptide array; type: binding; details: GST-SH2 0.25 μM; for Array positive: membrane-bound peptide, 1 mM DTT, LiCor read-out
# [5] = test system: panel of 50 SH2 domains; assay: SPOT peptide array probed with each of 50 GST-SH2 domains; type: binding; details: SH2 domains with intensity >3X array mean; GST-SH2 0.25 μM, 1 mM DTT
# How it was run: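 Membrane SPOT arrays of 192 phosphotyrosine 11-mer peptides (four residues N-terminal, six C-terminal to pTyr) probed with GST-SH2 fusions, detected by anti-GST plus near-infrared secondary antibody. Spots >3-fold array mean scored positive, below mean negative, 1–3× indeterminate; peptides binding GST alone above mean in two of three trials flagged as sticky.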
# [6] = target: T2, Src SH2 domain; design: method as in 2 sources, ref [19] = [19]; PMID 7680959; doi:10.1016/0092-8674(93)90404-e; Songyang Z Shoelson SE Chaudhuri M Gish G Pawson T Haser WG King F Roberts T Ratnofsky S Lechleider RJ SH2 domains recognize specific phosphopeptide sequences Cell 1993 72 767 778 7680959 10.1016/0092 ||| ref [119, 121] = [119]; PMID 9032297; doi:10.1128/mcb.17.3.1702; Schlaepfer DD Broome MA Hunter T Fibronectin-stimulated signaling from a focal adhesion kinase-c-Src complex: involvement of the Grb2, p130cas, and Nck adaptor proteins Mol Cell Biol 1997 17 1702 1713 || [121]; PMID 16245368; doi:10.1002/jmr.755; Nasertorabi F Tars K Becherer K Kodandapani R Liljas L Vuori K Ely KR Molecular basis for regulation of Src by the docking protein p130Cas J Mol Recognit 2006 19 30 38 16245368 10.1002/jmr.755; details: read-out: Affinity (KD); cited from earlier work
# [7] = target: Lck SH2 domain; design: method as in PMID 11278862; details: read-out: Affinity (KD); cited from earlier work
# [8] = test system: Bmx SH2 domain; assay: SPOT peptide array; type: binding; details: GST-SH2 0.25 μM, membrane-bound peptide, 1 mM DTT, LiCor read-out
# How it was run: as §1
# [9] = target: Crk SH2 domain (Homo sapiens, UniProt P46108); assay: SPOT peptide array; type: binding; details: GST-SH2 0.25 μM, membrane-bound peptide, 1 mM DTT, LiCor read-out
# How it was run: as §1
# [10] = test system: Hck SH2 domain; assay: SPOT peptide array; type: binding; details: GST-SH2 0.25 μM, membrane-bound peptide, 1 mM DTT, LiCor read-out
# How it was run: as §1
# [11] = target: Sh2d1b SH2 domain (Homo sapiens, UniProt O14796); assay: SPOT peptide array; type: binding; details: GST-SH2 0.25 μM, membrane-bound peptide, 1 mM DTT, LiCor read-out
# [12] = target: T3, PI3K1_N SH2 domain (Homo sapiens, UniProt P27986); assay: SPOT peptide array; type: binding; details: GST-SH2 0.25 μM, membrane-bound peptide, 1 mM DTT, LiCor read-out
# How it was run: as §1
# [13] = test system: Plcγ-C SH2 domain; assay: SPOT peptide array; type: binding; details: GST-SH2 0.25 μM, membrane-bound peptide, 1 mM DTT, LiCor read-out
# How it was run: as §1
# [14] = test system: Plcγ-N SH2 domain; assay: SPOT peptide array; type: binding; details: GST-SH2 0.25 μM, membrane-bound peptide, 1 mM DTT, LiCor read-out
# How it was run: as §1
# [15] = target: Vav1 SH2 domain (Homo sapiens, UniProt P15498); assay: SPOT peptide array; type: binding; details: GST-SH2 0.25 μM, membrane-bound peptide, 1 mM DTT, LiCor read-out
# How it was run: as §1
# [16] = target: Plcγ-N SH2 domain; design: method as in PMID 9422724; details: tandem SH2 domains of PLCG1 against tandem phospho-peptide of PDGFRβ Y1009/Y1021; read-out: Affinity (KD); cited from earlier work
# [17] = target: Plcγ-C SH2 domain; design: method as in 2 sources, one per row (each row's own in cited_ref): ref 95-97 = [95]; PMID 9422724; doi:10.1074/jbc.273.2.729; Ottinger EA Botfield MC Shoelson SE Tandem SH2 domains confer high specificity in tyrosine kinase signaling J Biol Chem 1998 273 729 735 9422724 10.1074/jbc.273.2.729 || [96]; PMID 8181064; doi:10.1016/0092-8674(94)90160-0; Pascal SM Singer AU Gish G Yamazaki T Shoelson SE Pawson T Kay LE Forman-Kay JD Nuclear magnetic resonance structure of an SH2 domain of phospholipase C-gamma 1 complexed with a high affinity binding || [97]; PMID 15641795; doi:10.1021/bi048641k; Finerty PJ Jr Mittermaier AK Muhandiram R Kay LE Forman-Kay JD NMR dynamics-derived insights into the binding properties of a peptide interacting with an SH2 domain Biochemistry 2005 44 694 703 156417 ||| ref [98] = [98]; PMID 11526507; doi:10.1038/sj.onc.1204654; Malabarba MG Milia E Faretta M Zamponi R Pelicci PG Di Fiore PP A repertoire library that allows the selection of synthetic SH2s with altered binding specificities Oncogene 2001 20 5186 5194 11526507; details: tandem SH2 domains of PLCG1 against tandem phospho-peptide of PDGFRβ Y1009/Y1021; read-out: Affinity (KD); cited from earlier work
# [18] = target: T3, PI3K1_N SH2 domain; design: method as in PMID 8384875; details: cited from earlier work
# [19] = target: T4, Rasa1_C SH2 domain (Homo sapiens, UniProt P20936); assay: SPOT peptide array; type: binding; details: GST-SH2 0.25 μM, membrane-bound peptide, 1 mM DTT, LiCor read-out
# T4 sequence (P20936 351-441 limits assumed): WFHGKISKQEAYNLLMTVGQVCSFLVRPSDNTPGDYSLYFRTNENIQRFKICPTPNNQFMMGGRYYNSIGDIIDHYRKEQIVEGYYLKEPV
# [20] = target: T5, Shc1 SH2 domain (Homo sapiens, UniProt P29353); design: method as in PMID 7544002; details: read-out: Affinity (KD); cited from earlier work
# T5 sequence (P29353 488-579 limits assumed): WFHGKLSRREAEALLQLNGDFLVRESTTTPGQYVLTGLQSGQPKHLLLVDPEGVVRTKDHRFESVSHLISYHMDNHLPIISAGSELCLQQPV
# [21] = test system: Ptpn11 SH2 domain (N or C not specified); assay: SPOT peptide array; type: binding; details: GST-SH2 0.25 μM, membrane-bound peptide, 1 mM DTT, LiCor read-out
# How it was run: as §1
# [22] = test system: Ptpn11_C SH2 domain; assay: SPOT peptide array; type: binding; details: spot intensity as factor of array mean; GST-SH2 0.25 μM
# How it was run: as §1
# [23] = target: T6, Ptpn11_N SH2 domain (Homo sapiens, UniProt Q06124); assay: SPOT peptide array; type: binding; details: spot intensity as factor of array mean; GST-SH2 0.25 μM
# T6 sequence (Q06124 6-102 limits assumed): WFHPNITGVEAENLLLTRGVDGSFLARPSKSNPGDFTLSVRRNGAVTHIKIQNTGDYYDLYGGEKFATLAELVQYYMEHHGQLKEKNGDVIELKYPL
# How it was run: as §1
# [24] = target: T5, Shc1 SH2 domain; assay: SPOT peptide array; type: binding; details: GST-SH2 0.25 μM, membrane-bound peptide, 1 mM DTT, LiCor read-out
# How it was run: as §1
# [25] = spot intensity as factor of array mean
# T3 sequence (P27986 333-428 limits assumed): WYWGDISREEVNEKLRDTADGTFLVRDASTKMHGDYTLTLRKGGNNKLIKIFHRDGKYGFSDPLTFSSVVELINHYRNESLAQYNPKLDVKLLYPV
# Vav1 SH2 domain, sequence (P15498 671-765 limits assumed): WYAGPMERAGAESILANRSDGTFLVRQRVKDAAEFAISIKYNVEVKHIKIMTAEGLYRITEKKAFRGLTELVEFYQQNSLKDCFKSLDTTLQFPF
# Sh2d1b SH2 domain, sequence (O14796 5-101 limits assumed): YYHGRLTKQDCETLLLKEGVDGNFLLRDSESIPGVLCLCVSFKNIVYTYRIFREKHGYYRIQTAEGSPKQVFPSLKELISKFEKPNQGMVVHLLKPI
# Crk SH2 domain, sequence (P46108 13-118 limits assumed): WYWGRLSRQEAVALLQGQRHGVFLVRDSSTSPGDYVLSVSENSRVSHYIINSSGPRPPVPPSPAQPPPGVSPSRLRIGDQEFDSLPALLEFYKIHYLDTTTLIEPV
substance,measurement,setting,value
"GLDEpYDEVPMP [11-mer phosphotyrosine control peptide, B3AT (Y921), similar to the TIR10 peptide, reference compound]",Array positive,[1],Yes (Array-positive binding was ascribed to interactions with intensities greater than three times the array mean)
same,Kd,[2],60 nM
"AEPQpYEEIPIY [11-mer phosphotyrosine control peptide, Middle T-antigen (Y323), reference compound]",Array positive,[3],Yes (Array-positive binding was ascribed to interactions with intensities greater than three times the array mean)
same,Array positive,[4],Yes (Array-positive binding was ascribed to interactions with intensities greater than three times the array mean)
same,Other SH2 domains bound (additional array-positive SH2 domains),[5],"Blk, Brk, Fer, Fgr, Hck, Lyn, Nck1, Shc1, Yes"
same,Kd,[6],550 to 800 nM
same,Kd,[7],1300 ± 200 nM
"WMEDpYDYVHLQ [11-mer phosphotyrosine peptide, p130Cas (Y664)]",Array positive,[8],Yes (Array-positive binding was ascribed to interactions with intensities greater than three times the array mean)
same,Array positive,[1],Yes (Array-positive binding was ascribed to interactions with intensities greater than three times the array mean)
same,Array positive,[3],No (Peptide spots with average intensity values between 1X-3X the array mean were defined as ‘indeterminate’. Those with intensities below 1X mean were defined as array negative)
same,Peptide array intensity (X mean),[3]; [25],2.45 X Mean
same,Array positive,[4],No (Peptide spots with average intensity values between 1X-3X the array mean were defined as ‘indeterminate’. Those with intensities below 1X mean were defined as array negative)
same,Peptide array intensity (X mean),[4]; [25],2.03 X Mean
same,Other SH2 domains bound (additional array-positive SH2 domains),[5],"Bcar3, Brk, Crk, Crkl, Dapp1, Fer, Grb7, Matk, PI3K1_N, Rasa1_N, Rasa1_C, Sh3bp2 and Itk"
same,Kd,[6],25 to 46 nM
"EDDGpYDVPKPP [11-mer phosphotyrosine control peptide, Cbl (Y774), reference compound]",Array positive,[9],Yes (Array-positive binding was ascribed to interactions with intensities greater than three times the array mean)
same,Array positive,[10],Yes (Array-positive binding was ascribed to interactions with intensities greater than three times the array mean)
same,Other SH2 domains bound (additional array-positive SH2 domains),[5],"Crkl and Fgr, Src, Yes"
"SLTIpYAQVQKA [11-mer phosphotyrosine control peptide, SLAM (Y280)]",Array positive,[11],Yes (Array-positive binding was ascribed to interactions with intensities greater than three times the array mean)
"ADNDpYIIPLPD [11-mer phosphotyrosine control peptide, PDGFRb (Y1021), reference compound]",Array positive,[12],No (Peptide spots with average intensity values between 1X-3X the array mean were defined as ‘indeterminate’. Those with intensities below 1X mean were defined as array negative)
same,Array positive,[13],Yes (Array-positive binding was ascribed to interactions with intensities greater than three times the array mean)
same,Array positive,[14],Yes (Array-positive binding was ascribed to interactions with intensities greater than three times the array mean)
same,Array positive,[15],Yes (Array-positive binding was ascribed to interactions with intensities greater than three times the array mean)
same,Other SH2 domains bound (additional array-positive SH2 domains),[5],Brk
same,Kd,[16],0.65 to 2.2 nM
same,Kd,[17],0.65 to 2.2 nM
same,Relative affinity (ID50),[18],45 µM
"QDSLpYSDPLDS [11-mer phosphotyrosine peptide, p62DOK1 (Y315)]",Array positive,[19],Yes (Array-positive binding was ascribed to interactions with intensities greater than three times the array mean)
same,Other SH2 domains bound (additional array-positive SH2 domains),[5],"Abl1, Blk, Crk, Lck, Lyn, Nck1, Src, Zap70_N"
"HDGLpYQGLSTA (HDGLYQGLSTA) [11-mer phosphotyrosine control peptide, CD150 (Y142)]",Kd,[20],50 µM
"STVEpYSTVVHS [11-mer phosphotyrosine control peptide, gp130/IL-6 Receptor (Y759), reference compound]",Array positive,[21],No (Peptide spots with average intensity values between 1X-3X the array mean were defined as ‘indeterminate’. Those with intensities below 1X mean were defined as array negative)
same,Peptide array intensity (X mean),[22],2.8 X Mean
same,Peptide array intensity (X mean),[23],1.33 X Mean
same,Other SH2 domains bound (additional array-positive SH2 domains),[5],"PTPN11_N is 1.33X Mean, PTPN11_C is 2.8X Mean Brdg1, Brk, Sh2d1b"
"HDGLpYQGLSTA [11-mer phosphotyrosine control peptide, CD150 (Y142)]",Array positive,[24],No (Peptide spots with average intensity values between 1X-3X the array mean were defined as ‘indeterminate’. Those with intensities below 1X mean were defined as array negative)
